Reference: ChEMBL document CHEMBL4765323, “Design, synthesis, and biological evaluation of novel miconazole analogues containing selenium as potent antifungal agents” (Eur J Med Chem, 2020)
In brackets after ≈: the same amount, converted by molar mass.

Tests used:
Candida albicans [1] = assay: Antifungal activity against Candida albicans CPCC400616 measured after 24 hrs by micro-broth dilution assay; format: functional
Candida albicans [2] = assay: Antifungal activity against Candida albicans ATCC SC5314 measured after 24 hrs by micro-broth dilution assay; format: functional
[Candida] zeylanoides = Antifungal activity against Candida zeylanoides CMGCC2.3739 measured after 24 hrs by micro-broth dilution assay; format: functional; conditions: Dujonia zeylanoides
Cryptococcus neoformans = assay: Antifungal activity against Cryptococcus neoformans CGMCC2.3161 measured after 72 hrs by micro-broth dilution assay; format: functional
Pichia kudriavzevii = assay: Antifungal activity against Candida krusei AS 2.1045 measured after 24 hrs by micro-broth dilution assay; format: functional
Nakaseomyces glabratus = assay: Antifungal activity against clinical isolate Candida glabrata measured after 24 hrs by micro-broth dilution assay; format: functional
Candida parapsilosis = assay: Antifungal activity against Candida parapsilosis ATCC 22019 measured after 24 hrs by micro-broth dilution assay; format: functional; conditions: Lodderomyces parapsilosis
Aspergillus fumigatus = assay: Antifungal activity against Aspergillus fumigatus CGMCC 3.7795 measured after 72 hrs by micro-broth dilution assay; format: functional
Candida albicans [3] = assay: Antifungal activity against fluconazole-resistant Candida albicans CaR measured after 24 hrs by micro-broth dilution assay; format: functional
Candida albicans [4] = assay: Antifungal activity against fluconazole-resistant Candida albicans 17 measured after 24 hrs by micro-broth dilution assay; format: functional
Candida albicans [5] = assay: Antifungal activity against fluconazole-resistant Candida albicans 632 measured after 24 hrs by micro-broth dilution assay; format: functional
Candida albicans [6] = assay: Antifungal activity against Candida albicans 901 measured after 24 hrs by micro-broth dilution assay; format: functional
Candida albicans [7] = assay: Antifungal activity against fluconazole-resistant Candida albicans strain 904 measured after 24 hrs by micro-broth dilution assay; format: functional
Candida albicans [8] = assay: Fungicidal activity against Candida albicans CPCC400616 measured after 48 hrs; format: functional
[9] = Ratio of MFC for fungicidal activity against Candida albicans CPCC400616 to MIC for Antifungal activity against Candida albicans CPCC400616; format: functional; conditions: time 24 hrs
Candida albicans [10] = assay: Antibiofilm activity against FCZ-Resistant Candida albicans CPCC400616 assessed as sessile minimum inhibitory concentration of biofilm formation at 50% after 1.5 hrs by XTT assay; format: functional
Candida albicans [11] = assay: Antibiofilm activity against FCZ-Resistant Candida albicans CPCC400616 assessed as sessile minimum inhibitory concentration of biofilm formation at 50% after 3 hrs by XTT assay; format: functional
Candida albicans [12] = assay: Antibiofilm activity against FCZ-Resistant Candida albicans CPCC400616 assessed as sessile minimum inhibitory concentration of biofilm formation at 50% after 6 hrs by XTT assay; format: functional
Candida albicans [13] = assay: Antibiofilm activity against FCZ-Resistant Candida albicans CPCC400616 assessed as sessile minimum inhibitory concentration of biofilm formation at 50% after 24 hrs by XTT assay; format: functional
Erythrocyte = assay: Hemolytic activity in rabbit RBC assessed as hemolysis ratio at 1 ug/ml measured after 3 hrs relative to control; format: ADME, cell-based, Oryctolagus cuniculus; conditions: dose 1 µg/ml
Candida albicans [14] = assay: Antibiofilm activity against FCZ-Resistant Candida albicans CPCC400616 assessed as sessile minimum inhibitory concentration of biofilm formation at 80% after 1.5 hrs by XTT assay; format: functional
Candida albicans [15] = assay: Antibiofilm activity against FCZ-Resistant Candida albicans CPCC400616 assessed as sessile minimum inhibitory concentration of biofilm formation at 80% after 3 hrs by XTT assay; format: functional
Candida albicans [16] = assay: Antibiofilm activity against FCZ-Resistant Candida albicans CPCC400616 assessed as sessile minimum inhibitory concentration of biofilm formation at 80% after 6 hrs by XTT assay; format: functional
Candida albicans [17] = assay: Antibiofilm activity against FCZ-Resistant Candida albicans CPCC400616 assessed as sessile minimum inhibitory concentration of biofilm formation at 80% after 24 hrs by XTT assay; format: functional
[18] = Ratio of hemolysis activity in rabbit RBC to MIC for Candida albicans; format: toxicity; conditions: rabbit red blood cells (RBC)

SMILES: Fc1ccc(Br)c(C[Se]C(Cn2ccnc2)c2ccc(Cl)cc2Cl)c1 (stereo not given)
- MIC (Candida albicans [1]): 0.02 mg/L (≈ 0.0394 µM)
- MIC (Candida albicans [2]): 0.01 mg/L (≈ 0.0197 µM)
- MIC ([Candida] zeylanoides): 0.5 mg/L (≈ 0.986 µM)
- MIC (Cryptococcus neoformans): 0.25 mg/L (≈ 0.493 µM)
- MIC (Pichia kudriavzevii): 0.13 mg/L (≈ 0.256 µM)
- MIC (Nakaseomyces glabratus): 0.5 mg/L (≈ 0.986 µM)
- MIC (Candida parapsilosis): 0.02 mg/L (≈ 0.0394 µM)
- MIC (Aspergillus fumigatus): 0.5 mg/L (≈ 0.986 µM)
- MIC (Candida albicans [3]): 0.13 mg/L (≈ 0.256 µM)
- MIC (Candida albicans [4]): 0.03 mg/L (≈ 0.0592 µM)
- MIC (Candida albicans [5]): 0.13 mg/L (≈ 0.256 µM)
- MIC (Candida albicans [6]): 0.25 mg/L (≈ 0.493 µM)
- MIC (Candida albicans [7]): 0.13 mg/L (≈ 0.256 µM)
- MIC (Candida albicans [8]): 0.0625 mg/L (≈ 0.123 µM)
- MFC/MIC ratio [9]: 4
- Activity (Candida albicans [10]): 1 µg/mL
- Activity (Candida albicans [11]): 8 µg/mL
- Activity (Candida albicans [12]): 8 µg/mL
- Activity (Candida albicans [13]): 128 µg/mL
- Activity (Erythrocyte): 0.49 µg/mL
- Activity (Candida albicans [14]): 8 µg/mL
- Activity (Candida albicans [15]): 64 µg/mL
- Activity (Candida albicans [16]): >128 µg/mL
- Activity (Candida albicans [17]): >128 µg/mL
- selectivity ratio [18]: 256
